In patent US20190328755A1, “METHODS OF TREATING COMPLEX REGIONAL PAIN SYNDROME (CRPS) OR SYMPTOMS COMPRISING ADMINISTRATION OF […]” (GRUNENTHAL GMBH, priority 2018, published 2019):

Tested on: subjects with CRPS
Assay: Open-label single-arm Phase III trial of intravenous neridronic acid, average pain intensity (11-point NRS)
Assay type: in vivo, human
Conditions: subjects with CRPS duration >2 years; 400 mg i.v. cumulative, 4 infusions of 240 min; interim look
Protocol: A multi-site, open-label, single-arm, Phase III safety trial of intravenous neridronic acid at a cumulative dose of 400 mg was conducted in subjects with CRPS to investigate the safety and tolerability of intravenous neridronic acid in subjects with CRPS.
The trial product was supplied in glass vials, each containing 111.2 mg sodium neridronate hemihydrate (equivalent to 100 mg neridronic acid) in a total volume of 8 mL. For each infusion, before use, the trial product was diluted in sterile normal saline (0.9% NaCl, e.g., United States Pharmacopeia (USP) grade saline for injection) to a volume of approximately 500 mL and administered by slow intravenous infusion (240 minutes [maximum 260 minutes]) at day 1, day 4, day 7 and day 10, resulting in a total dose of 400 mg neridronic acid.
In addition, the trial provided supportive data on efficacy and long-term effectiveness of neridronic acid of 400 mg. Average, worst (both with a 24-hour recall period) and current pain intensity was measured at the trial visits using an 11-point numerical rating scale on a tablet computer.
The trial included an enrollment period lasting up to 60 days, a treatment period consisting of 4 infusions of neridronic acid over 10 days, and a follow-up period of approximately 50 weeks. […]

NCCCCCC(O)(P(=O)(O)O)P(=O)(O)O [neridronic acid]
mean (standard deviation) change from baseline to Day 84 in average pain intensity (NRS): −1.22 (2.197)
